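Grown in 96-well plates, cells were treated for 48 hours with each compound at five concentrations. Insufficient inhibition: endpoint recorded as highest concentration tested. GI50 = concentration required for 50% inhibition of growth. TGI: concentration producing complete growth inhibition.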

The test system of the first test is SNB-19 CNS. Description: NCI tumour cell line growth inhibition, 48 h.
As to `O=C1/C(=C/c2ccccc2)N=C2Sc3c(nc[nH]c3=O)N12`, the TGI is > 100 µM.

The next test deals with HCT-116 colon. Description: NCI tumour cell line growth inhibition, 48 h.
Turning to `CCCCCCc1cc2cc(-c3csc(CC#N)n3)c(=O)oc2cc1O`, the TGI was > 100 µM.

As to `Nn1c(-c2ccccc2)nn(C(=O)c2ccccc2)c1=O`, the TGI is > 100 µM.

As for `COC(=O)C([C@H](NC1(c2ccccc2)c2ccccc2-c2ccccc21)C(=O)OC)N(NC(=O)OCc1ccccc1)C(=O)OCc1ccccc1` (mixture of isomers), the TGI was > 100 µM.

The compound `CC[C@@H]1CC[C@@H]2[C@H](CC[C@]3(C)[C@@H](OC(C)=O)CC[C@@H]23)[C@H]1COC(C)=O` gave a TGI of 31.7 µM.

Turning to `CN1CCc2cc(N)cc3c2C1Cc1ccc(O)c(O)c1-3` (stereo not drawn), the TGI is > 100 µM.

As for `CC(C)=CCc1c2c(c3occ(-c4ccc(O)cc4)c(=O)c3c1O)CC(C(C)(C)O)O2` (stereo not drawn), the TGI is 45.3 µM.

Consider `CC1(C)N=[N+]([O-])C1(C)C`, for which the TGI was > 100 µM.

The compound `COc1ccc(C2CC(c3c(O)ccc4ccccc34)=NN2C(C)=O)cc1OC` (stereo not drawn) showed a TGI of 28.6 µM.

With `COc1cc2nc3n(c(=O)c2cc1OC)-c1ccc([N+](=O)[O-])cc1C3=O`, the TGI was > 100 µM.

For the compound `NC(N)=N/N=C/c1c(-c2ccc(N)cc2)nc2sccn12`, the TGI worked out at 59.2 µM.

For the compound `COC(=O)c1c(C)cccc1C1CN=NC12Cc1ccc(C)cc1C2=O` (stereo not drawn), the TGI was determined as 74 µM.

For the compound `COC(=O)C1SC(SC)=NC12c1ccccc1Nc1ccccc12` (stereo not drawn), the TGI was > 100 µM.

`c1ccc(N=c2sc3ccccc3nc2Nc2ccccc2)cc1`: the TGI is > 100 µM.

Regarding `C=CC1(C)CCC2C(=CCC3C2(C)CC(O)C(O)C3(C)COC2OC(C(=O)O)C(O)C(O)C2O)C1` (stereo not drawn) (tested in a mixture with another compound), the TGI was > 100 µM.

Regarding `Cc1ccccc1C(=O)N1CCc2c([nH]c3ccccc23)C1`, the TGI was found to be 33 µM.

As to `O=C1CC(NC(=O)C(F)(F)F)c2c(Br)sc(N3CCNCC3)c21` (stereo not drawn), the TGI is > 100 µM.

With `Cc1ccc([N+](=O)[O-])cc1NC1=NCCO1`, the TGI was > 100 µM.

Consider `N#CCCC1C(C#N)C2(Cl)CC1(Cl)C(Cl)=C2Cl` (stereo not drawn), for which the TGI was > 10 µM.

In the case of `CC(C)(C)N1CSC(=S)N(Cc2ccco2)C1`, the TGI came to 16.7 µM.

As for `CN(C)C(=O)O/N=C1/C(c2c(O)[nH]c3ccccc23)=Nc2ccccc21`, the TGI was > 100 µM.

The compound `COc1cc(C2c3cc4c(cc3OC(N3CCOCC3)C2C)OCO4)ccc1O` (stereo not drawn) gave a TGI of 50.4 µM.

Consider `O=C1/C(=C/c2ccccc2)N=C2Sc3c(nc[nH]c3=O)N12`, for which the TGI was > 100 µM.

For another test, the system named is NCI-H460 lung. The test can be described thus: NCI tumour cell line growth inhibition, 48 h.
Take `CCCCCCc1cc2cc(-c3csc(CC#N)n3)c(=O)oc2cc1O`: the TGI is > 100 µM.

Take `Nn1c(-c2ccccc2)nn(C(=O)c2ccccc2)c1=O`: the TGI was > 100 µM.

For `COC(=O)C([C@H](NC1(c2ccccc2)c2ccccc2-c2ccccc21)C(=O)OC)N(NC(=O)OCc1ccccc1)C(=O)OCc1ccccc1` (mixture of isomers), the TGI was > 100 µM.

`O=C(NC(=O)c1ccccc1[N+](=O)[O-])Nc1ccc(Oc2ncc(Br)cn2)c(Cl)c1`: the GI50 is < 0.0197 µM.

As for `CC[C@@H]1CC[C@@H]2[C@H](CC[C@]3(C)[C@@H](OC(C)=O)CC[C@@H]23)[C@H]1COC(C)=O`, the TGI amounted to 45.9 µM.

Consider `CN1CCc2cc(N)cc3c2C1Cc1ccc(O)c(O)c1-3` (stereo not drawn), for which the TGI was > 100 µM.

`CC(C)=CCc1c2c(c3occ(-c4ccc(O)cc4)c(=O)c3c1O)CC(C(C)(C)O)O2` (stereo not drawn): the TGI came out at 26 µM.

For `CC1(C)N=[N+]([O-])C1(C)C`, the TGI was > 100 µM.

On to `COc1ccc(C2CC(c3c(O)ccc4ccccc34)=NN2C(C)=O)cc1OC` (stereo not drawn), for which the TGI is 93.5 µM.

Consider `COc1cc2nc3n(c(=O)c2cc1OC)-c1ccc([N+](=O)[O-])cc1C3=O`, for which the TGI is > 100 µM.

With `NC(N)=N/N=C/c1c(-c2ccc(N)cc2)nc2sccn12`, the TGI is 76.8 µM.

The compound `COC(=O)c1c(C)cccc1C1CN=NC12Cc1ccc(C)cc1C2=O` (stereo not drawn) displayed a TGI of 28.2 µM.

For the compound `COC(=O)C1SC(SC)=NC12c1ccccc1Nc1ccccc12` (stereo not drawn), the TGI came out at 56.1 µM.

Regarding `c1ccc(N=c2sc3ccccc3nc2Nc2ccccc2)cc1`, the TGI was > 100 µM.

Consider `C=CC1(C)CCC2C(=CCC3C2(C)CC(O)C(O)C3(C)COC2OC(C(=O)O)C(O)C(O)C2O)C1` (stereo not drawn) (tested in a mixture with another compound), for which the TGI is > 100 µM.

In turn, `Cc1ccccc1C(=O)N1CCc2c([nH]c3ccccc23)C1` returned a TGI of 53.4 µM.

For `O=C1CC(NC(=O)C(F)(F)F)c2c(Br)sc(N3CCNCC3)c21` (stereo not drawn), the TGI is > 100 µM.

For the compound `Cc1ccc([N+](=O)[O-])cc1NC1=NCCO1`, the TGI was > 100 µM.

As to `N#CCCC1C(C#N)C2(Cl)CC1(Cl)C(Cl)=C2Cl` (stereo not drawn), the TGI is > 10 µM.

The compound `CC(C)(C)N1CSC(=S)N(Cc2ccco2)C1` gave a TGI of 22.5 µM.

In the case of `CN(C)C(=O)O/N=C1/C(c2c(O)[nH]c3ccccc23)=Nc2ccccc21`, the TGI is > 100 µM.

Compound `COc1cc(C2c3cc4c(cc3OC(N3CCOCC3)C2C)OCO4)ccc1O` (stereo not drawn) came in with a TGI of 55.5 µM.

Another test concerns LOX IMVI melanoma. The test can be described thus: NCI tumour cell line growth inhibition, 48 h.
Take `CCCCCCc1cc2cc(-c3csc(CC#N)n3)c(=O)oc2cc1O`: the TGI was > 100 µM.

For the compound `Nn1c(-c2ccccc2)nn(C(=O)c2ccccc2)c1=O`, the TGI was > 100 µM.

Turning to `COC(=O)C([C@H](NC1(c2ccccc2)c2ccccc2-c2ccccc21)C(=O)OC)N(NC(=O)OCc1ccccc1)C(=O)OCc1ccccc1` (mixture of isomers), the TGI is > 100 µM.

For the compound `O=C(NC(=O)c1ccccc1[N+](=O)[O-])Nc1ccc(Oc2ncc(Br)cn2)c(Cl)c1`, the GI50 was < 0.0208 µM and the TGI was > 100 µM.

The compound `CC[C@@H]1CC[C@@H]2[C@H](CC[C@]3(C)[C@@H](OC(C)=O)CC[C@@H]23)[C@H]1COC(C)=O` registered a TGI of 31.5 µM.

In turn, `CN1CCc2cc(N)cc3c2C1Cc1ccc(O)c(O)c1-3` (stereo not drawn) gave a TGI of 35 µM.

`CC(C)=CCc1c2c(c3occ(-c4ccc(O)cc4)c(=O)c3c1O)CC(C(C)(C)O)O2` (stereo not drawn) yielded a TGI of 30.4 µM.

Regarding `CC1(C)N=[N+]([O-])C1(C)C`, the TGI is > 100 µM.

On to `COc1cc2nc3n(c(=O)c2cc1OC)-c1ccc([N+](=O)[O-])cc1C3=O`, for which the TGI was > 100 µM.

Regarding `NC(N)=N/N=C/c1c(-c2ccc(N)cc2)nc2sccn12`, the TGI was > 100 µM.

As to `COC(=O)c1c(C)cccc1C1CN=NC12Cc1ccc(C)cc1C2=O` (stereo not drawn), the TGI was > 100 µM.

On to `COC(=O)C1SC(SC)=NC12c1ccccc1Nc1ccccc12` (stereo not drawn), for which the TGI worked out at 32.2 µM.

On to `c1ccc(N=c2sc3ccccc3nc2Nc2ccccc2)cc1`, for which the TGI was > 100 µM.

Regarding `C=CC1(C)CCC2C(=CCC3C2(C)CC(O)C(O)C3(C)COC2OC(C(=O)O)C(O)C(O)C2O)C1` (stereo not drawn) (tested in a mixture with another compound), the TGI was > 100 µM.

For the compound `Cc1ccccc1C(=O)N1CCc2c([nH]c3ccccc23)C1`, the TGI turned out to be 50.2 µM.

On to `O=C1CC(NC(=O)C(F)(F)F)c2c(Br)sc(N3CCNCC3)c21` (stereo not drawn), for which the TGI was > 100 µM.

Regarding `Cc1ccc([N+](=O)[O-])cc1NC1=NCCO1`, the TGI is > 100 µM.

With `N#CCCC1C(C#N)C2(Cl)CC1(Cl)C(Cl)=C2Cl` (stereo not drawn), the TGI is > 10 µM.

Take `CC(C)(C)N1CSC(=S)N(Cc2ccco2)C1`: the TGI was found to be 14.6 µM.

On to `CN(C)C(=O)O/N=C1/C(c2c(O)[nH]c3ccccc23)=Nc2ccccc21`, for which the TGI was > 100 µM.

Turning to `COc1cc(C2c3cc4c(cc3OC(N3CCOCC3)C2C)OCO4)ccc1O` (stereo not drawn), the TGI was > 58.9 µM.

Consider `O=C1/C(=C/c2ccccc2)N=C2Sc3c(nc[nH]c3=O)N12`, for which the TGI was > 100 µM.

The values are drawn from PubChem BioAssay (NCI).
